Data taken from the NIST ThermoML archive (doi:10.1016/j.jct.2018.01.014).
Several values for one entry are separate records, joined by “and”; a condition that tells them apart may be missing. Equal values may be shown once.

Settings: Liquid, Transpiration method

CN1CCC[C@H]1c1cccnc1 [(-)-3-(N-methylpyrrolidino)pyridine]
Settings | vapor or sublimation pressure
288.7 K | 0.002398 kPa
293.8 K | 0.003508 kPa
298.5 K | 0.005519 kPa
303.3 K | 0.008212 kPa
308.2 K | 0.01232 kPa and 0.01187 kPa
313.1 K | 0.01822 kPa
318.1 K | 0.02642 kPa
323 K | 0.03648 kPa
327.9 K | 0.05164 kPa
333.2 K | 0.07337 kPa
335.7 K | 0.08301 kPa
338.2 K | 0.1012 kPa
340.7 K | 0.1124 kPa
343.1 K | 0.1387 kPa
345.6 K | 0.1639 kPa
348.2 K | 0.2061 kPa
350.6 K | 0.222 kPa
353.2 K | 0.2733 kPa
358.1 K | 0.3726 kPa
363.2 K | 0.5077 kPa
368.1 K | 0.6692 kPa
373.1 K | 0.8635 kPa
